Assay results as given in patent publication US20070253980A1, “New pharmaceutical composition from natural materials for regulating immunity, its preparation method and use” (priority 2006, published 2007).

Experiments:
C8166 cells [1] = assay: Cytotoxic effect on C8166 cells (MTT); assay type: cell-based; conditions: three days, one value per date of experiment
C8166 cells [2] = assay: Protective experiment: survival rate of normal cells (MTT); assay type: cell-based; conditions: normal C8166 cells in protective experiment, three days
Description: 50 µl medium was added into half of the holes on the culture plate and 50 µl diluted supernatant fluid of HIV-1, in which the value of M.O.I was 0.0089, was added into the other half of the holes on the culture plate. At the same time, the blank control holes without the drug (the negative control) were set and the control culture holes with positive drug AZT (the positive control) were set too. They were put into 5% CO2 incubator under 37 °C for three days. The survival rate of cells was determined by MTT method. […] The following formulae were used to calculate the survival rate of normal cells caused by the drug and the protective rate of the drug for HIV-1-infected cells. Survival rate of normal cells(%)=OD value of the experimental hole/OD value of negative control hole□100% Protective rate of infected cells(%)=(OD value of the experimental hole−OD value of positive control hole)/(OD value of negative control hole−OD value of positive control hole)□100%

Q: How did the TC50 (C8166 cells [1]) turn out when `Cc1cn([C@H]2C[C@H](N=[N+]=[N-])[C@@H](CO)O2)c(=O)[nH]c1=O` [AZT] was run?
A: Its TC50 is greater than 50 µg/mL.

Q: And the TC50 (C8166 cells [2])?
A: Its TC50 is greater than 50 µg/mL.
